This is an account of results in article PMC12535076, “Neurotherapeutic effects of Vutiglabridin as a Paraoxonase-2 modulator in preclinical models of Parkinson’s disease” (Molecular Neurodegeneration, 2025).

Series [1] in a line: Quantification of drug concentration in plasma and brain of mice (LC-MS/MS). The series is classed as in vivo, C57BL/6J mice. The note with it: mouse. How it is done:
Male C57BL/6J mice (8 weeks old, n = 24, non-fasted; Charles River Japan (CRJ), OrientBio, Seongnam, Korea) were dosed with 50 mg/kg of Vuti once and sacrificed at 0, 1, 2, 4, 6, 8, 10, 24 h time point (n = 3 per time point). Their whole blood was collected via the vena cava in a heparin-coated syringe and their whole brain was collected after perfusion with 0.9% saline. Vuti was quantified in both plasma and brain samples using LC-MS/MS analysis. This study was performed in accordance with the Association for Assessment and Accreditation of Laboratory Animal Care International (AAALAC; Approval No. LCDI-2021-0027).
LC-MS/MS analysis to quantify Vuti used previously set conditions. Briefly, HPLC-ESI-MS/MS analyses were performed using a 1200 series HPLC system (Agilent Technologies, Wilmington, DE) coupled to 6490 Accurate-Mass Triple Quadrupole Mass Spectrometer (Agilent Technologies, Wilmington, DE). Mass detection was performed in the positive ion mode, and the column temperature was maintained at 40 °C using a thermostatically controlled column oven. The column used for the separation was Hypersil GOLD C18 column (2.1 × 100 mm ID; 1.9 μm, Thermo Science). The mobile phases consisted of 0.1% acetic acid in distilled water (solvent A) and 0.1% acetic acid in ACN: MeOH = 3:1 (v/v) (solvent B). The LC gradient was as follows: 0–3 min, B 20%; 3–5 min, B 20 − 80%; 5–8 min, B 80%; 8–10 min, B 80 − 20%; and 10–15 min, B 20%. The flow rate was 250 µL/ min, and the total run time was 15 min. For multiple reaction monitoring (MRM) analyses, the target transition used was 355.1/151.0 m/z for Vuti. The collision energy was 17 V and nitrogen was used as the desolvation gas at a flow rate of 11 L/min and at 300 °C. Skyline software (MacCoss Laboratory, University of Washington, Seattle, WA) was used to process the LC-MS/MS data.

Series [2] can be described thus: QWBA and plasma radioactivity after oral 14C-Vuti in rats. The series is classed as in vivo, Sprague-Dawley rat. The note with it: abstract statement; species not stated there. How it is done: Male 8-week-old Sprague Dawley rats (n = 5, 16 h fasted; Charles River Laboratories Japan Inc., Yokohama, Japan) were orally administered 10 mg/kg of ^14C-Vuti (equivalent to radioactivity of 3.7 MBq/kg, Glaceum Inc., Suwon, Korea). After 2, 6, and 24 h, each rat was euthanized by CO2 inhalation. The nasal cavity and anus were filled with 4% w/v sodium carboxymethyl cellulose, and the carcass was frozen in a dry ice-acetone mixture. […] The radioactivity was measured by the bio-imaging analyzer system (FUJIX-BAS2500, Fujifilm, Tokyo, Japan; resolution µm, gradation 256, sensitivity 10000, latitude 4), in which the radioactivity in organs was converted to the photo-stimulated luminescence per unit area (PSL/mm^2) minus the background radioactivity of the plastic standard samples. Tissue radioactivity in whole-body auto-radiograms was quantified by densitometry using an MCID image analysis software (v. 7.0, MCID Image Analysis Software Solutions for Life Sciences, Cambridge, UK). Radioactivity concentrations were expressed as ng equivalents of ^14C-Vuti per gram tissue (ng eq/g tissue). […]
For measuring the radioactive concentration in the plasma, blood (250 uL) was collected from the tail vein of the animals (n = 3) of the exact same conditions as the animals used for QWBA assay. […] Then the tissue to blood ratio was calculated. […]

Like-named read-outs stand apart in the source and are kept apart here.

As for `CCOc1ccc(C2COc3c(ccc4c3CCC(C)(C)O4)C2)c(O)c1` (centres unmarked) [Vuti, Vutiglabridin], the Kp at 6 h in series [1] (male, C57BL/6J, brain / plasma, oral, single 50 mg/kg, at Tmax of 6 h, read-out: brain concentration relative to plasma) is 2.7. Moreover, the Kp in series [1] (male, C57BL/6J, brain / plasma, single oral 50 mg/kg, read-out: brain relative to plasma by AUC24h) is 2.6. Also, the concentration at 6 h in series [1] (male, C57BL/6J, brain, single oral 50 mg/kg, at Tmax of 6 h, read-out: concentration in brain) came out at 4030 ng/g; in series [1] (male, C57BL/6J, plasma, single oral 50 mg/kg, at Tmax of 6 h, read-out: concentration in plasma), 1490 ng/mL. In addition, the time of peak concentration (Tmax) (usually the time at which the peak concentration occurs) in series [1] (male, C57BL/6J, plasma, single oral 50 mg/kg) turned out to be 6 h. Further, in series [1] (male, C57BL/6J, plasma, single oral 50 mg/kg, read-out: AUC24h in plasma), the AUC(0-t) stood at 16100 ng·h/mL. The molecule further came in with an AUC24h in brain in series [1] (single oral 50 mg/kg) of 42.5 µg·h/g. Moreover, the “duration of presence in the brain” value in series [2] was “over 24 h”.
